A short description of assay [1]: Inhibition of LFA1 expressed in human JY cells interaction with ICAM1-IG expressed in human HeLa cell monolayer after 45 mins by cell adhesion assay.
For assay [2], the target named is T1, Integrin alpha-L (Homo sapiens, UniProt P20701).
T1 sequence (P20701 whole entry): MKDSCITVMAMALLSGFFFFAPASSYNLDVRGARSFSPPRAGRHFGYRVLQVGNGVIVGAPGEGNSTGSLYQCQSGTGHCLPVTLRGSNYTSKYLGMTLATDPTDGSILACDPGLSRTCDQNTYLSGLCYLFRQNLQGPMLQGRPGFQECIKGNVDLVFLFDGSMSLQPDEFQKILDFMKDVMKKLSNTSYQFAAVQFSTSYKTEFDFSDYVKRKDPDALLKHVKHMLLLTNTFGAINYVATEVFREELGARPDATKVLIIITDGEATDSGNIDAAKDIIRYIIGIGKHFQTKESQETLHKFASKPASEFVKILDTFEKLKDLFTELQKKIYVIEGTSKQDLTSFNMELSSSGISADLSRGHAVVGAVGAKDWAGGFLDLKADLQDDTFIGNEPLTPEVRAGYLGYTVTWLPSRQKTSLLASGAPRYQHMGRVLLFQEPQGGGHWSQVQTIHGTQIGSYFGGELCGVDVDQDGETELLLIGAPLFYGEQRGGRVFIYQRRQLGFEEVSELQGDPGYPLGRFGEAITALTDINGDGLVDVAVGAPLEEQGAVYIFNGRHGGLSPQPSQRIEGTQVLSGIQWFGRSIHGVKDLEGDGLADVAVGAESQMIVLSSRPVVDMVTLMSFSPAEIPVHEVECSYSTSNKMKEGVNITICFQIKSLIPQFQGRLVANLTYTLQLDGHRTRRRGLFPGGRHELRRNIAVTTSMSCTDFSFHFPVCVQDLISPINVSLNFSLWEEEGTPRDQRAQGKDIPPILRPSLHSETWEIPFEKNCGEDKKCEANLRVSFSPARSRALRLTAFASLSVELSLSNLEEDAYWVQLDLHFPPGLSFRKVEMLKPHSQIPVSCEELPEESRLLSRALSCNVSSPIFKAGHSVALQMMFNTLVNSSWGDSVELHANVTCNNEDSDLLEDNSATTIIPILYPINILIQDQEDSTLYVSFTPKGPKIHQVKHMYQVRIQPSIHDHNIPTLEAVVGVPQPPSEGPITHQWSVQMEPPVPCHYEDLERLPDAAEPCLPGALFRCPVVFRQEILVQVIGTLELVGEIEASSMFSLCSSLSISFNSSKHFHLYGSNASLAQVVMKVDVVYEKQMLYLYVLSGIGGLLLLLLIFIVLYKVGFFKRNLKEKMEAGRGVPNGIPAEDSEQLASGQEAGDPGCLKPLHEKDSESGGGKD
The assay can be described thus: Inhibition of LFA1 expressed in human JY cells interaction with ICAM1-IG expressed in human HeLa cell monolayer after 45 mins by cell adhesion assay.

Usually IC50 stands for the concentration that gives 50% inhibition. Read a low IC50 as greater potency in that assay.

For the molecule `CC(C)(O)/C=C/C(=O)[C@@](C)(O)[C@H]1[C@H](O)C[C@@]2(C)[C@@H]3CC=C4[C@@H](C[C@H](O)C(=O)C4(C)C)[C@]3(C)C(=O)C[C@]12C`, in assay [1], inhibition was half-maximal at 1360 nM (IC50). `CC(C)(O)CCC(=O)[C@@](C)(O)C1[C@H](O)C[C@@]2(C)[C@@H]3CC=C4C(CC(=O)C(=O)C4(C)C)[C@]3(C)C(=O)C[C@]12C` (stereo partly drawn) [Cucurbitacin L] returned an IC50 in assay [2] greater than 50000 nM.

In assay [2], `CC(C)(O)C=CC(=O)[C@](C)(O)[C@H]1[C@H](O)C[C@@]2(C)[C@@H]3CC=C4[C@@H](CC(=O)C(=O)C4(C)C)[C@]3(C)C(=O)C[C@]12C` [NSC-521777] yielded an IC50 of 950 nM.

The values above are taken from BindingDB's records for doi:10.1021/np50113a004 (1994).
